In brackets after ≈: the same amount, converted by molar mass. Like-named read-outs stand apart in the source and are kept apart here.
Experiments:
Assay in all cases: in vitro antibacterial activity, agar dilution method (MIC)
Assay type in all cases: cell-based
Pseudomonas Cepacia = settings: strain 296I; BHI agar, 20-24 hours
Experimental: (§1) Compounds 1 to 8 were evaluated for antibacterial activity by the agar dilution method to determine the degree of in vitro susceptibility of aerobic microorganisms to antimicrobial agents. The test medium was Brain Heart Infusion (BHI) agar. The antibacterial agent was dissolved at a concentration of 2,000 ug/mL. Test plates were then prepared, usually 12 two-fold dilutions. After adding the sample to the plates, 10 mL of cooled BHI agar medium was added to each plate. The organisms were grown overnight in BHI broth (Difco) in a 35°-37° C. incubator.
(§2) On the day of testing, the bacterial suspensions were diluted 1:100 in sterile distilled water, except for a few slow-growing organisms (usually Micrococcus and Streptococcus) which were diluted 1:10. The plate was then inoculated with approximately 10^4 organisms. This was incubated in a 35°-37° C. incubator for 20-24 hours. Thereafter, the plates were read to determine the minimum inhibitory concentration (MIC) defined as the lowest concentration of drug yielding no growth on the plate, a slight haze, or sparsely isolated colonies on the inoculum spot as compared to the growth control.

Escherichia Coli = settings: BHI agar, 20-24 hours
Experimental: as §1, §2

Acinetobacter Sp = settings: strain CMX 669; BHI agar, 20-24 hours
Experimental: (§3) The test medium was Brain Heart Infusion (BHI) agar. The antibacterial agent was dissolved at a concentration of 2,000 ug/mL. Test plates were then prepared, usually 12 two-fold dilutions. After adding the sample to the plates, 10 mL of cooled BHI agar medium was added to each plate. The organisms were grown overnight in BHI broth (Difco) in a 35°-37° C. incubator.
as §2

Haemophilus Influenzae = settings: BHI agar, 20-24 hours
Experimental: as §3, §2

Enterococcus Faecium = settings: strain ATCC 8043; BHI agar, 20-24 hours
Experimental: as §3, §2

Staphylococcus Aureus = settings: BHI agar, 20-24 hours
Experimental: as §3, §2

Enterobacter Aerogenes = settings: strain ATCC 13048; BHI agar, 20-24 hours
Experimental: as §3, §2

Streptococcus Pyogenes = settings: BHI agar, 20-24 hours
Experimental: as §3, §2

Pseudomonas Aeruginosa = settings: BHI agar, 20-24 hours
Experimental: as §3, §2

Providencia Stuartii = settings: strain CMX 640; BHI agar, 20-24 hours
Experimental: as §3, §2

Streptococcus Agalactiae = settings: strain CMX 508; BHI agar, 20-24 hours
Experimental: as §3, §2

Klebsiella Pneumoniae = settings: strain ATCC 8045; BHI agar, 20-24 hours
Experimental: as §3, §2

Micrococcus Luteus = system: Micrococcus Luteus
Experimental: as §3, §2

[1] = system: Staphylococcus Epidermidis; settings: strain 3519; BHI agar, 20-24 hours
Experimental: as §3, §2

Streptococcus Bovis = settings: strain A5169, BHI agar, 20-24 hours
Experimental: as §3, §2

[2] = strain ATCC 4698, BHI agar, 20-24 hours

SMILES: CCC1OC(=O)CC(O)C(C)C(OC2OC(C)C(O)C(N(C)C)C2O)C(CC=O)CC(C)C(N(C)C)CCC(C)=CC1COC(C)=O (stereo not drawn) [Example 7, [9S]-23-O-Acetyl-9-deoxo-10,11-dihydro-9-N,N-dimethylamino-5-O-mycaminosyl-tylonide]
- MIC (Pseudomonas Cepacia): > 100 µg/mL
- MIC (Escherichia Coli; strain DC-2): 50 µg/mL (≈ 74.5 µM)
- MIC (Escherichia Coli; strain H560): 12.5 µg/mL (≈ 18.6 µM)
- MIC (Escherichia Coli; strain JUHL): 100 µg/mL (≈ 149 µM)
- MIC (Escherichia Coli; strain KNK 437): 50 µg/mL (≈ 74.5 µM)
- MIC (Escherichia Coli; strain SS): 0.78 µg/mL (≈ 1.16 µM)
- MIC (Acinetobacter Sp): 50 µg/mL (≈ 74.5 µM)
- MIC (Haemophilus Influenzae; Haemophilus influenzae, strain 588A, read-out: MIC): 4 µg/mL (≈ 5.96 µM)
- MIC (Haemophilus Influenzae; strain 503B): 2 µg/mL (≈ 2.98 µM)
- MIC (Haemophilus Influenzae; strain 519A): 1 µg/mL (≈ 1.49 µM)
- MIC (Haemophilus Influenzae; strain 566A): 4 µg/mL (≈ 5.96 µM)
- MIC (Haemophilus Influenzae; strain 747C): 4 µg/mL (≈ 5.96 µM)
- MIC (Haemophilus Influenzae; strain 751): 16 µg/mL (≈ 23.8 µM)
- MIC (Haemophilus Influenzae; strain 1177): 0.5 µg/mL (≈ 0.745 µM)
- MIC (Haemophilus Influenzae; strain 1435): 4 µg/mL (≈ 5.96 µM)
- MIC (Haemophilus Influenzae; strain ATCC 9795): 4 µg/mL (≈ 5.96 µM)
- MIC (Haemophilus Influenzae; strain ATCC 10211): 4 µg/mL (≈ 5.96 µM)
- MIC (Haemophilus Influenzae; strain ATCC 19418): 4 µg/mL (≈ 5.96 µM)
- MIC (Haemophilus Influenzae; strain ATCC 43095): 2 µg/mL (≈ 2.98 µM)
- MIC (Haemophilus Influenzae; strain DILL AMP R): 4 µg/mL (≈ 5.96 µM)
- MIC (Haemophilus Influenzae; strain SOL AMP R): 4 µg/mL (≈ 5.96 µM)
- MIC (Haemophilus Influenzae; strain SPK AMP R): 4 µg/mL (≈ 5.96 µM)
- MIC (Enterococcus Faecium): 1.56 µg/mL (≈ 2.33 µM)
- MIC (Staphylococcus Aureus; strain 45): 3.1 µg/mL (≈ 4.62 µM)
- MIC (Staphylococcus Aureus; strain 45 RAR2): 6.2 µg/mL (≈ 9.24 µM)
- MIC (Staphylococcus Aureus; strain 642A): 6.2 µg/mL (≈ 9.24 µM)
- MIC (Staphylococcus Aureus; strain A5177): 6.2 µg/mL (≈ 9.24 µM)
- MIC (Staphylococcus Aureus; strain ATCC 6538P): 6.2 µg/mL (≈ 9.24 µM)
- MIC (Staphylococcus Aureus; strain CMX 553): 6.2 µg/mL (≈ 9.24 µM)
- MIC (Staphylococcus Aureus; strain NCTC 10649): 6.2 µg/mL (≈ 9.24 µM)
- MIC (Enterobacter Aerogenes): > 100 µg/mL
- MIC (Streptococcus Pyogenes; strain 930 CONST): > 100 µg/mL
- MIC (Streptococcus Pyogenes; strain 2548 INDUC): 1.56 µg/mL (≈ 2.33 µM)
- MIC (Streptococcus Pyogenes; strain EES61): 0.78 µg/mL (≈ 1.16 µM)
- MIC (Pseudomonas Aeruginosa; strain A5007): > 100 µg/mL
- MIC (Pseudomonas Aeruginosa; strain BMH10): 100 µg/mL (≈ 149 µM)
- MIC (Pseudomonas Aeruginosa; strain K799/61): 3.1 µg/mL (≈ 4.62 µM)
- MIC (Pseudomonas Aeruginosa; strain K799/WT): > 100 µg/mL
- MIC (Providencia Stuartii): > 100 µg/mL
- MIC (Streptococcus Agalactiae): 0.39 µg/mL (≈ 0.581 µM)
- MIC (Klebsiella Pneumoniae): 100 µg/mL (≈ 149 µM)
- MIC (Micrococcus Luteus; [2]): 1.56 µg/mL (≈ 2.33 µM)
- MIC (Micrococcus Luteus; strain ATCC 9341, BHI agar, 20-24 hours): 0.78 µg/mL (≈ 1.16 µM)
- MIC [1]: 1.56 µg/mL (≈ 2.33 µM)
- MIC (Streptococcus Bovis): 0.1 µg/mL (≈ 0.149 µM)

SMILES: CCC1OC(=O)CC(O)C(C)C(OC2OC(C)CC(N(C)C)C2O)C(CC=O)CC(C)C(N(C)C)CCC2(C)OC2C1C (stereo not drawn) [Example 3, [9S]-9-Deoxo-10,11-dihydro-9-N,N-dimethylamino-rosaramicin]
- MIC (Pseudomonas Cepacia): > 100 µg/mL
- MIC (Escherichia Coli; strain DC-2): 6.2 µg/mL (≈ 10.1 µM)
- MIC (Escherichia Coli; strain SS): 0.1 µg/mL (≈ 0.163 µM)
- MIC (Acinetobacter Sp): 3.1 µg/mL (≈ 5.06 µM)
- MIC (Haemophilus Influenzae; Haemophilus influenzae, strain 519A, read-out: MIC): 0.25 µg/mL (≈ 0.408 µM)
- MIC (Haemophilus Influenzae; Haemophilus influenzae, strain 751, read-out: MIC): 4 µg/mL (≈ 6.53 µM)
- MIC (Haemophilus Influenzae; Haemophilus influenzae, strain 1435, read-out: MIC): 0.5 µg/mL (≈ 0.816 µM)
- MIC (Haemophilus Influenzae; Haemophilus influenzae, strain DILL AMP R, read-out: MIC): 0.5 µg/mL (≈ 0.816 µM)
- MIC (Haemophilus Influenzae; strain 503B): 0.5 µg/mL (≈ 0.816 µM)
- MIC (Haemophilus Influenzae; strain 504): 0.5 µg/mL (≈ 0.816 µM)
- MIC (Haemophilus Influenzae; strain 566A): 1 µg/mL (≈ 1.63 µM)
- MIC (Haemophilus Influenzae; strain 588A): 1 µg/mL (≈ 1.63 µM)
- MIC (Haemophilus Influenzae; strain 632A): 1 µg/mL (≈ 1.63 µM)
- MIC (Haemophilus Influenzae; strain 667A): 0.5 µg/mL (≈ 0.816 µM)
- MIC (Haemophilus Influenzae; strain 747C): 1 µg/mL (≈ 1.63 µM)
- MIC (Haemophilus Influenzae; strain 1177): 0.12 µg/mL (≈ 0.196 µM)
- MIC (Haemophilus Influenzae; strain ATCC 9795): 1 µg/mL (≈ 1.63 µM)
- MIC (Haemophilus Influenzae; strain ATCC 10211): 0.5 µg/mL (≈ 0.816 µM)
- MIC (Haemophilus Influenzae; strain ATCC 19418): 1 µg/mL (≈ 1.63 µM)
- MIC (Haemophilus Influenzae; strain ATCC 43095): 1 µg/mL (≈ 1.63 µM)
- MIC (Haemophilus Influenzae; strain SOL AMP R): 1 µg/mL (≈ 1.63 µM)
- MIC (Haemophilus Influenzae; strain SPK AMP R): 0.25 µg/mL (≈ 0.408 µM)
- MIC (Enterococcus Faecium): 0.78 µg/mL (≈ 1.27 µM)
- MIC (Staphylococcus Aureus; strain 45): 0.78 µg/mL (≈ 1.27 µM)
- MIC (Staphylococcus Aureus; strain 45 RAR2): 1.56 µg/mL (≈ 2.55 µM)
- MIC (Staphylococcus Aureus; strain 642A): 1.56 µg/mL (≈ 2.55 µM)
- MIC (Staphylococcus Aureus; strain A5177): 0.78 µg/mL (≈ 1.27 µM)
- MIC (Staphylococcus Aureus; strain ATCC 6538P): 1.56 µg/mL (≈ 2.55 µM)
- MIC (Staphylococcus Aureus; strain CMX 553): 1.56 µg/mL (≈ 2.55 µM)
- MIC (Staphylococcus Aureus; strain NCTC 10649): 0.78 µg/mL (≈ 1.27 µM)
- MIC (Enterobacter Aerogenes): 12.5 µg/mL (≈ 20.4 µM)
- MIC (Streptococcus Pyogenes; strain 930 CONST): > 100 µg/mL
- MIC (Streptococcus Pyogenes; strain 2548 INDUC): 0.78 µg/mL (≈ 1.27 µM)
- MIC (Streptococcus Pyogenes; strain EES61): 0.1 µg/mL (≈ 0.163 µM)
- MIC (Pseudomonas Aeruginosa; strain A5007): > 100 µg/mL
- MIC (Pseudomonas Aeruginosa; strain BMH10): 100 µg/mL (≈ 163 µM)
- MIC (Pseudomonas Aeruginosa; strain K799/61): 0.78 µg/mL (≈ 1.27 µM)
- MIC (Pseudomonas Aeruginosa; strain K799/WT): 100 µg/mL (≈ 163 µM)
- MIC (Providencia Stuartii): > 100 µg/mL
- MIC (Streptococcus Agalactiae): 0.2 µg/mL (≈ 0.326 µM)
- MIC (Klebsiella Pneumoniae): 6.2 µg/mL (≈ 10.1 µM)
- MIC (Micrococcus Luteus; Micrococcus luteus, ATCC9341): 0.2 µg/mL (≈ 0.326 µM)
- MIC (Micrococcus Luteus; [2]): 0.39 µg/mL (≈ 0.636 µM)
- MIC [1]: 1.56 µg/mL (≈ 2.55 µM)
- MIC (Streptococcus Bovis; Streptococcus equinus): 0.05 µg/mL (≈ 0.0816 µM)

Source: US5140014A (Abbott Laboratories, priority 1989, dated 1992)
